Source: patent US11866450B2, “Modulators of Cystic Fibrosis Transmembrane Conductance regulator, pharmaceutical compositions, methods of treatment, and process for making the modulators” (priority 2018, dated 2024)
Read-outs that look alike come from different tables or passages of the source.

Tests used:
[1] = biological target: CFTR-mediated chloride transport (Homo sapiens, UniProt P13569); assay type: cell-based; details: enteroid cells incubated with test compound 18-24 hours, acute 10 μM forskolin and 300 nM Compound III; for Max. Activity: % of chloride transport with 3 μM Compound A, 3 μM Compound II and 300 nM acute Compound III triple combination control
Outline: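 Human intestinal enteroid cells incubated with compound 18–24 h at 37° C., then membrane potential dye (FLIPR) read 15 min after chloride-free stimulation with 10 μM forskolin, 100 μM IBMX and 300 nM Compound III. AUC expressed as % of triple-combination control (3 μM Compound A, 3 μM Compound II, 300 nM Compound III).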

[2] = snar bond, DMSO

Chain of CFTR-mediated chloride transport (P13569 whole entry, looked up): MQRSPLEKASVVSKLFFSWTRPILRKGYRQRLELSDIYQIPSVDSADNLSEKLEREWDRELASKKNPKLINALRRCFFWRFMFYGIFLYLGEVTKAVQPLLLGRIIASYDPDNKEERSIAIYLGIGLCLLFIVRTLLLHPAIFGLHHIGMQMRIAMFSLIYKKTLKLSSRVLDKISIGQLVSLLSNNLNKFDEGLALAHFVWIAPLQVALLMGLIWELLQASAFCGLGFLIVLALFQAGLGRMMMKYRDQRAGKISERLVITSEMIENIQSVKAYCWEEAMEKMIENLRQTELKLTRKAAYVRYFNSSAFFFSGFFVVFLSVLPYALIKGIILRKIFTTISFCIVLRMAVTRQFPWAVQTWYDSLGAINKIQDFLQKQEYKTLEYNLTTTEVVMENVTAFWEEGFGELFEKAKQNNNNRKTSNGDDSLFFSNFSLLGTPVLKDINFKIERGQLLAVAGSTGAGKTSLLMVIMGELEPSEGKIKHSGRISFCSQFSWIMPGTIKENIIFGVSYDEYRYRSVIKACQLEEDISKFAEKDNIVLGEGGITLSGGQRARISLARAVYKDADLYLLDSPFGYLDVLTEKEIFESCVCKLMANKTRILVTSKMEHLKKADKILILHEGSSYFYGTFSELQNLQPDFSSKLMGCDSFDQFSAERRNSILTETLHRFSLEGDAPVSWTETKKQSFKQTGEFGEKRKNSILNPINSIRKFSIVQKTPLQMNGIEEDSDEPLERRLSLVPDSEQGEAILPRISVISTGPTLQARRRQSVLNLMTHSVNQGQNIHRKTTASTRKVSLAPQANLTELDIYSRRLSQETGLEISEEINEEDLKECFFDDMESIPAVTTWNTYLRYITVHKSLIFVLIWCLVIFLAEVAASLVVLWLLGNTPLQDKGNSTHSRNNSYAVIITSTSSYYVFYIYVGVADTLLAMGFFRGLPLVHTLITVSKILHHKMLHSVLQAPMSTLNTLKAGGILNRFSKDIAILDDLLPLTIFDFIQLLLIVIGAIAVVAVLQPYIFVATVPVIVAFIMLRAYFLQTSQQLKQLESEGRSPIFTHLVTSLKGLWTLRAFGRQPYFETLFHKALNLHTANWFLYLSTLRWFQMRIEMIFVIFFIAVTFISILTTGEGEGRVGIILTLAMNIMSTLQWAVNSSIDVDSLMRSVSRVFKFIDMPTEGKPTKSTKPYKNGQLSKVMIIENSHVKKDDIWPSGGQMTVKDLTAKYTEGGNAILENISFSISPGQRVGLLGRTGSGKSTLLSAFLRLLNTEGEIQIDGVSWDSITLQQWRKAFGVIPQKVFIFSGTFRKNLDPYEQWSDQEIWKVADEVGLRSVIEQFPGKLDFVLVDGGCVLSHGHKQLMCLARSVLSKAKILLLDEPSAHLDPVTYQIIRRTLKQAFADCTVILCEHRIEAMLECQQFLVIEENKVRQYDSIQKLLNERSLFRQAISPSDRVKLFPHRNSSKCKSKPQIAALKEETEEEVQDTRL

SMILES	EC50 [1] [nM]	Max. Activity [1]	also measured
CC1(C)CCC2CCCNc3cccc(n3)S(=O)(=O)NC(=O)c3ccc(-n4ccc(OCCC(C5CC5)C5CC5)n4)nc3N21 (stereo not drawn) [Compound 131, 8-[3-(3,3-Dicyclopropylpropoxy)-1H-pyrazol-1-yl]-12,12-dimethyl-2λ^6-thia-3,9,11,19,24-pentaazatetracyclo[18.3.1.05,10.011,15]tetracosa-1(23),5(10),6,8,20(24),21-hexaene-2,2,4-trione]	< 1000	++ (++ is 30-60%)	ring closure, yield after HPLC ([2]; from CC(C)(C)OC(=O)N1C(CCCNc2cccc(S(=O)(=O)NC(=O)c3ccc(-n4ccc(OCCC(C5CC5)C5CC5)n4)nc3Cl)n2)CCC1(C)C, 14-membered ring, K2CO3/CsF/3A MS, 94.1 mM, 150.0 °C, 2 steps): 39%
CC1(C)CC2CN1c1nc(-n3ccc(OCCC4(C(F)(F)F)CC4)n3)ccc1C(=O)NS(=O)(=O)c1ccn(n1)CCO2 (racemic) [Compound 164, 20,20-Dimethyl-4-(3-{2-[1-(trifluoromethyl)cyclopropyl]ethoxy}-1H-pyrazol-1-yl)-17-oxa-10λ^6-thia-1,3,9,14,22-pentaazatetracyclo[16.2.1.111,14.02,7]docosa-2(7),3,5,11(22),12-pentaene-8,10,10-trione]	1000 to 3000	++ (++ is 30-60%)	ring closure, yield after HPLC ([2]; from CC(C)(C)OC(=O)N1CC(OCCn2ccc(S(=O)(=O)NC(=O)c3ccc(-n4ccc(OCCC5(C(F)(F)F)CC5)n4)nc3Cl)n2)CC1(C)C, 14-membered ring, K2CO3/CsF/3A MS, 62.6 mM, 140.0 °C, 2 steps): 30%
CC(C)COc1cc(F)cc(-c2ccc3c(n2)N2C[C@@H](CCCn4ccc(n4)S(=O)(=O)NC3=O)CC2(C)C)c1 [Compound 226]	< 1000	++ (++ is 30-60%)	ring closure, yield after HPLC ([2]; from CC(C)COc1cc(F)cc(-c2ccc(C(=O)NS(=O)(=O)c3ccn(CCC[C@@H]4CN(C(=O)OC(C)(C)C)C(C)(C)C4)n3)c(Cl)n2)c1, 14-membered ring, K2CO3/CsF/3A MS, 15.0 mM, 150.0 °C, 2 steps): 34%
CC1(C)C[C@@H]2CCCOc3cccc(c3)S(=O)(=O)NC(=O)c3ccc(-n4ccc(OCCC5(C(F)(F)F)CC5)n4)nc3N1C2 [Compound 77, (14S)-12,12-Dimethyl-8-(3-{2-[1-(trifluoromethyl)cyclopropyl]ethoxy}-1H-pyrazol-1-yl)-18-oxa-2λ^6-thia-3,9,11-triazatetracyclo[17.3.1.111,14.05,10]tetracosa-1(23),5(10),6,8,19,21-hexaene-2,2,4-trione]	< 1000	+++ (+++ is >60%)	ring closure, yield after HPLC ([2]; from CC1(C)C[C@H](CCCOc2cccc(S(=O)(=O)NC(=O)c3ccc(-n4ccc(OCCC5(C(F)(F)F)CC5)n4)nc3Cl)c2)CN1, 15-membered ring, K2CO3/CsF/3A MS, 62.9 mM, 150.0 °C, 20.0 h, 2 steps): 20%
CC1(C)CC2CCCNc3cccc(n3)S(=O)(=O)NC(=O)c3ccc(-n4ccc(OCCC(C5CC5)C5CC5)n4)nc3N1C2 (stereo not drawn) [Compound 43, 8-[3-(3,3-dicyclopropylpropoxy)-1H-pyrazol-1-yl]-12,12-dimethyl-2λ^6-thia-3,9,11,18,23-pentaazatetracyclo[17.3.1.111,14.05,10]tetracosa-1(22),5,7,9,19(23),20-hexaene-2,2,4-trione]	< 1000	+++ (+++ is >60%)	ring closure, yield after HPLC ([2]; from CC1(C)CC(CCCNc2cccc(S(=O)(=O)NC(=O)c3ccc(-n4ccc(OCCC(C5CC5)C5CC5)n4)nc3Cl)n2)CN1, 15-membered ring, K2CO3/CsF/3A MS, 26.4 mM, 130.0 °C, 2 steps): 55%
CC1(C)CC2CN1c1nc(-n3ccc(OCCC4C5(CC5)C45CC5)n3)ccc1C(=O)NS(=O)(=O)c1cccc(n1)NCCO2 (racemic) [Compound 188, 8-[3-(2-{Dispiro[2.0.2.1]heptan-7-yl}ethoxy)-1H-pyrazol-1-yl]-12,12-dimethyl-15-oxa-2λ^6-thia-3,9,11,18,23-pentaazatetracyclo[17.3.1.111,14.05,10]tetracosa-1(23),5(10),6,8,19,21-hexaene-2,2,4-trione]	< 1000	+++ (+++ is >60%)	ring closure, yield after HPLC ([2]; from CC1(C)CC(OCCNc2cccc(S(=O)(=O)NC(=O)c3ccc(-n4ccc(OCCC5C6(CC6)C56CC6)n4)nc3Cl)n2)CN1, 15-membered ring, K2CO3/CsF/3A MS, 108.4 mM, 140.0 °C, 20.0 h, 2 steps): 97%
CC(C)C(COc1ccn(-c2ccc3c(n2)N2CC(CCCNc4cccc(n4)S(=O)(=O)NC3=O)CC2(C)C)n1)C(C)C (stereo not drawn) [Compound 220, 12,12-Dimethyl-8-{3-[3-methyl-2-(propan-2-yl)butoxy]-1H-pyrazol-1-yl}-2λ^6-thia-3,9,11,18,23-pentaazatetracyclo[17.3.1.111,14.05,10]tetracosa-1(23),5(10),6,8,19,21-hexaene-2,2,4-trione]	< 1000	+++ (+++ is >60%)	ring closure, yield after HPLC ([2]; from CC(C)C(COc1ccn(-c2ccc(C(=O)NS(=O)(=O)c3cccc(NCCCC4CCC(C)(C)N4C(=O)OC(C)(C)C)n3)c(Cl)n2)n1)C(C)C, 15-membered ring, K2CO3/CsF/3A MS, 83.8 mM, 140.0 °C, 2 steps): 39%
Cc1nn2cc1S(=O)(=O)NC(=O)c1ccc(-n3ccc(OCCC4(C(F)(F)F)CC4)n3)nc1N1CC(CCC2)CC1(C)C (stereo not drawn) [Compound 19, 12,20,20-trimethyl-4-(3-{2-[1-(trifluoromethyl)cyclopropyl]ethoxy}-1H-pyrazol-1-yl)-10λ^6-thia-1,3,9,13,14-pentaazatetracyclo[16.2.1.111,14.02,7]docosa-2,4,6,11(22),12-pentaene-8,10,10-trione]	1000 to 3000	++ (++ is 30-60%)	ring closure, yield after HPLC ([2]; from Cc1nn(CCCC2CNC(C)(C)C2)cc1S(=O)(=O)NC(=O)c1ccc(-n2ccc(OCCC3(C(F)(F)F)CC3)n2)nc1Cl, 14-membered ring, K2CO3/CsF/3A MS, 31.9 mM, 150.0 °C): 9%
Cc1c2cnn1CCCC1CN(c3nc(-n4ccc(OCCC5(C(F)(F)F)CC5)n4)ccc3C(=O)NS2(=O)=O)C(C)(C)C1 (stereo not drawn) [Compound 18, 20,20,22-trimethyl-4-(3-{2-[1-(trifluoromethyl)cyclopropyl]ethoxy}-1H-pyrazol-1-yl)-10λ^6-thia-1,3,9,13,14-pentaazatetracyclo[16.2.1.111,14.02,7]docosa-2,4,6,11(22),12-pentaene-8,10,10-trione]	< 1000	++ (++ is 30-60%)	ring closure, yield after HPLC ([2]; from Cc1c(S(=O)(=O)NC(=O)c2ccc(-n3ccc(OCCC4(C(F)(F)F)CC4)n3)nc2Cl)cnn1CCCC1CNC(C)(C)C1, 14-membered ring, K2CO3/CsF/3A MS, 31.9 mM, 150.0 °C): 7%
CC1(C)CC2CCCOc3ccc(cn3)S(=O)(=O)NC(=O)c3ccc(-n4ccc(OCCC5(C(F)(F)F)CC5)n4)nc3N1C2 (stereo not drawn) [Compound 90, 12,12-dimethyl-8-(3-{2-[1-(trifluoromethyl)cyclopropyl]ethoxy}-1H-pyrazol-1-yl)-18-oxa-2λ^6-thia-3,9,11,20-tetraazatetracyclo[17.2.2.111,14.05,10]tetracosa-1(21),5(10),6,8,19,22-hexaene-2,2,4-trione]	< 1000	++ (++ is 30-60%)	ring closure, yield after HPLC ([2]; from CC(C)(C)OC(=O)N1CC(CCCOc2ccc(S(=O)(=O)NC(=O)c3ccc(-n4ccc(OCCC5(C(F)(F)F)CC5)n4)nc3Cl)cn2)CC1(C)C, 16-membered ring, HCl (Boc off), K2CO3/CsF/3A MS, 61.4 mM, 155.0 °C, 2 steps): 7%
Cc1nn2cc1S(=O)(=O)NC(=O)c1ccc(-n3ccc(OCCC4(C(F)(F)F)CC4)n3)nc1N1C[C@@H](CCC2)CC1(C)C [Compound 112, (18S)-12,20,20-trimethyl-4-(3-{2-[1-(trifluoromethyl)cyclopropyl]ethoxy}-1H-pyrazol-1-yl)-10λ^6-thia-1,3,9,13,14-pentaazatetracyclo[16.2.1.111,14.02,7]docosa-2,4,6,11(22),12-pentaene-8,10,10-trione]	< 1000	++ (++ is 30-60%)	ring closure, yield after HPLC ([2]; from Cc1nn(CCC[C@@H]2CNC(C)(C)C2)cc1S(=O)(=O)NC(=O)c1ccc(-n2ccc(OCCC3(C(F)(F)F)CC3)n2)nc1Cl, 14-membered ring, K2CO3/CsF, 37.8 mM, 160.0 °C): 26%
CC1(C)CCC2CCCOc3cccc(n3)S(=O)(=O)NC(=O)c3ccc(-n4ccc(OCCC5(C(F)(F)F)CC5)n4)nc3N21 (stereo not drawn) [Compound 147, 12,12-dimethyl-8-(3-{2-[1-(trifluoromethyl)cyclopropyl]ethoxy}-1H-pyrazol-1-yl)-19-oxa-2λ^6-thia-3,9,11,24-tetraazatetracyclo[18.3.1.05,10.011,15]tetracosa-1(24),5(10),6,8,20,22-hexaene-2,2,4-trione]	< 1000	++ (++ is 30-60%)	ring closure, yield after HPLC ([2]; from CC(C)(C)OC(=O)N1C(CCCOc2cccc(S(=O)(=O)NC(=O)c3ccc(-n4ccc(OCCC5(C(F)(F)F)CC5)n4)nc3Cl)n2)CCC1(C)C, 14-membered ring, K2CO3/CsF/3A MS, 66.1 mM, 140.0 °C, 2 steps): 5%
CC1(C)CCC2CCCCNc3cccc(n3)S(=O)(=O)NC(=O)c3ccc(-n4ccc(OCCC5(C(F)(F)F)CC5)n4)nc3N21 (stereo not drawn) [Compound 37, 12,12-dimethyl-8-(3-{2-[1-(trifluoromethyl)cyclopropyl]ethoxy}-1H-pyrazol-1-yl)-2λ^6-thia-3,9,11,20,25-pentaazatetracyclo[19.3.1.05,10.011,15]pentacosa-1(24),5,7,9,21(25),22-hexaene-2,2,4-trione]	< 1000	+ (+ is <30%)	ring closure, yield after HPLC ([2]; from CC1(C)CCC(CCCCNc2cccc(S(=O)(=O)NC(=O)c3ccc(-n4ccc(OCCC5(C(F)(F)F)CC5)n4)nc3Cl)n2)N1, 15-membered ring, K2CO3/CsF, 85.3 mM, 150.0 °C): 25%
